For experiment [1], the target named is T1, D(2) dopamine receptor (Homo sapiens, UniProt P14416). Kind of experiment: Displacement of [3H]spiroperidol from human cloned dopamine D2L receptor at 10 uM. For orientation: Loss of bound radioactivity is the signal in a displacement assay; it reports binding, not function.
For the next experiment, the target named is D(3) dopamine receptor (Homo sapiens, UniProt P35462).
In experiment [2] the target is T1, D(2) dopamine receptor.

Chain of D(3) dopamine receptor (P35462 whole entry): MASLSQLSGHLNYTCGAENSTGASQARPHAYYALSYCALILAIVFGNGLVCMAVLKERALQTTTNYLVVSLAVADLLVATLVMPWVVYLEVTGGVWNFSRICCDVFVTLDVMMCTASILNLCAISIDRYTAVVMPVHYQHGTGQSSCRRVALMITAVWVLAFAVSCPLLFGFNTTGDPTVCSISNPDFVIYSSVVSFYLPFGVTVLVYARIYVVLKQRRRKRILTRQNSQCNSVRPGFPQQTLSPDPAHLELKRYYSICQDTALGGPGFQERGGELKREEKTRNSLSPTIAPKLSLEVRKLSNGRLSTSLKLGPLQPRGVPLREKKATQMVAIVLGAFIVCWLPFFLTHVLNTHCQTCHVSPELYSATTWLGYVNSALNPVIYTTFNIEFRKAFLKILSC
T1 sequence (P14416 whole entry): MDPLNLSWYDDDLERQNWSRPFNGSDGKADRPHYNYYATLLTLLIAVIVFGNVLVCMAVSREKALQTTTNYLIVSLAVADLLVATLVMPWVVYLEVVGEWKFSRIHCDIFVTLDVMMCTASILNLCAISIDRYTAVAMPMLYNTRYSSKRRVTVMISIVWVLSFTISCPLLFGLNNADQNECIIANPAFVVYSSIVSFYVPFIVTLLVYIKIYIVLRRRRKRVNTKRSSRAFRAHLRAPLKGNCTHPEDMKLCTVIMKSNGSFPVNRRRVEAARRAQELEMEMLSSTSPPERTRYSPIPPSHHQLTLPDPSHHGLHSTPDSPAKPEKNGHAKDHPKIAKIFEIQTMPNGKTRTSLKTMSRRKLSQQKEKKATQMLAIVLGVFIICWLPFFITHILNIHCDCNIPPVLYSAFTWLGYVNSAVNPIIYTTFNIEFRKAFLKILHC
Description for D(3) dopamine receptor: Displacement of [3H]spiroperidol from human cloned dopamine D3 receptor

What is called inhibition is the percentage by which the read-out fell short of the control. For orientation: Ki means the dissociation constant of the complex between target and ligand, obtained from inhibition or displacement. A low value points to higher affinity. `Cc1ccc2nc(-c3ccc(OCCCN4CCN(c5cccc(Cl)c5Cl)CC4)cc3)cn2c1`: the inhibition at D(2) dopamine receptor [1] was 31%. On D(3) dopamine receptor, the Ki is 28.9 nM.

For the molecule `COc1ccccc1N1CCN(CCCCOc2ccc(-c3cn4cccc(C)c4n3)cc2)CC1`, the Ki was 159 nM at D(2) dopamine receptor [2] and 385 nM at D(3) dopamine receptor.

In the case of `COc1ccccc1N1CCN(CCCOc2ccc(-c3cn4cc(C)ccc4n3)cc2)CC1`, the figures for the Ki on D(2) dopamine receptor [2] and at D(3) dopamine receptor were 78 nM and 176 nM, respectively.

Turning to `Clc1cccc(N2CCN(CCCOc3ccc(-c4cn5ccccc5n4)cc3)CC2)c1Cl`, the Ki at D(2) dopamine receptor [2] is 44 nM; on D(3) dopamine receptor, 156 nM.

Regarding `COc1ccccc1N1CCN(CCCOc2ccc(-c3cn4cccc(C)c4n3)cc2)CC1`, the Ki at D(2) dopamine receptor [2] amounted to 49 nM; on D(3) dopamine receptor, 50 nM.

As for `COc1ccccc1N1CCN(CCCCOc2ccc(-c3cn4cc(C)ccc4n3)cc2)CC1`, the results for the inhibitory constant (Ki) on D(2) dopamine receptor [2] and at D(3) dopamine receptor were 47 nM and 146 nM, respectively.

As for `COc1ccccc1N1CCN(CCCCOc2ccc(-c3cn4ccc(C)cc4n3)cc2)CC1`, the Ki turned out to be 52 nM on D(2) dopamine receptor [2] and 40 nM on D(3) dopamine receptor.

Take `Clc1cccc(N2CCN(CCCCOc3ccc(-c4cn5ccccc5n4)cc3)CC2)c1Cl`: the Ki on D(2) dopamine receptor [2] was determined as 68 nM; at D(3) dopamine receptor it was 38 nM.

Turning to `COc1ccccc1N1CCN(CCCOc2ccc(-c3cn4ccc(C)cc4n3)cc2)CC1`, the results for the inhibition constant (Ki) on D(2) dopamine receptor [2] and on D(3) dopamine receptor were 78 nM and 71 nM, respectively.

With `Cc1ccn2cc(-c3ccc(OCCCN4CCN(c5cccc(Cl)c5Cl)CC4)cc3)nc2c1`, the values for the Ki on D(2) dopamine receptor [2] and at D(3) dopamine receptor were 83 nM and 8 nM, respectively.

Consider `Cc1ccc2nc(-c3ccc(OCCCCN4CCN(c5cccc(Cl)c5Cl)CC4)cc3)cn2c1`, for which the Ki at D(2) dopamine receptor [2] came out at 149 nM; at D(3) dopamine receptor, 8 nM.

For the molecule `Cc1cccn2cc(-c3ccc(OCCCN4CCN(c5cccc(Cl)c5Cl)CC4)cc3)nc12`, the inhibition constant (Ki) on D(2) dopamine receptor [2] came out at 125 nM; at D(3) dopamine receptor it was 225 nM.

For the molecule `Cc1cccn2cc(-c3ccc(OCCCCN4CCN(c5cccc(Cl)c5Cl)CC4)cc3)nc12`, the results for the inhibition constant (Ki) at D(2) dopamine receptor [2] and at D(3) dopamine receptor were 560 nM and 54.4 nM, respectively.

Consider `COc1ccccc1N1CCN(CCCCOc2ccc(-c3cn4ccccc4n3)cc2)CC1`, for which the results for the Ki at D(2) dopamine receptor [2] and at D(3) dopamine receptor were 179 nM and 0.72 nM, respectively.

With `Cc1ccn2cc(-c3ccc(OCCCCN4CCN(c5cccc(Cl)c5Cl)CC4)cc3)nc2c1`, the Ki was 111 nM at D(2) dopamine receptor [2] and 60 nM at D(3) dopamine receptor.

For the molecule `COc1ccccc1N1CCN(CCCOc2ccc(-c3cn4ccccc4n3)cc2)CC1`, the Ki came to 49 nM on D(2) dopamine receptor [2] and 1.6 nM at D(3) dopamine receptor.

Values taken from ChEMBL document CHEMBL1148812, “4-[omega-[4-arylpiperazin-1-yl]alkoxy]phenyl)imidazo[1,2-a]pyridine derivatives: fluorescent high-affinity dopamine D3 receptor ligands as potential probes for receptor visualization” (J Med Chem, 2007).
